# Reference: patent publication US9474749B2 (priority 2004, dated 2016)
# Columns and labels:
# [1] = test system: Mytilus edulis pedal ganglia; assay: Endogenous morphine levels in excised pedal ganglia incubated in vitro (HPLC, RIA); type: cell-based
# pedal ganglia = assay: NO release from excised pedal ganglia (NO-selective microprobe); type: cell-based, Mytilus edulis
# Method: For the nitric oxide assay, ten pedal ganglia (per determination) dissected from M. edulis were bathed in 1 mL sterile phosphate buffered saline (PBS). […] For the opiate receptor antagonist experiments, ganglia were pretreated with naloxone for 10 minutes prior to reticuline addition. NO release was monitored with an NO-selective microprobe manufactured by World Precision Instruments (Sarasota, Fla.). The sensor was positioned approximately 100 μm above the respective tissue surface. […] The NO detection system was calibrated daily. The probe was allowed to equilibrate for 10 minutes in the incubation medium free of tissue before being transferred to vials containing the ganglia for another 5 minutes. Manipulation and handling of the ganglia was only performed with glass instruments. Data was acquired using the Apollo-4000 free radical analyzer (World Precision Instruments, Sarasota, Fla.). The experimental values were then transferred to Sigma-Plot and -Stat (Jandel, Calif.) for graphic representation and evaluation.
# mu3 opiate receptor [2] = target: T1, mu3 opiate receptor (Homo sapiens, UniProt P35372); assay: biochemical; type: binding; details: read-out: Monocytes IC50, displacement of 3H-dihydromorphine; mean +/− S.E.M., three experiments
# T1 construct: An additional 100 excised pedal ganglia and the human monocytes were separately washed and homogenized; host or cells: human monocytes
# T1 sequence (P35372 1-314 isoform P35372-14): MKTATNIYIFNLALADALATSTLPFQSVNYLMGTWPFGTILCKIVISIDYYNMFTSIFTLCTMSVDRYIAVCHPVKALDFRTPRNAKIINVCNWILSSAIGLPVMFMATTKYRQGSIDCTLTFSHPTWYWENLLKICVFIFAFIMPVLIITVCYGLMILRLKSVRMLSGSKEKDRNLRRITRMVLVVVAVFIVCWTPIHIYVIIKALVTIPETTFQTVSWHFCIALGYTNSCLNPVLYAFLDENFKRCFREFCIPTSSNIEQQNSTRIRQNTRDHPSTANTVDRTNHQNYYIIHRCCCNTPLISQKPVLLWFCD
# Method: For the nitric oxide assay, ten pedal ganglia (per determination) dissected from M. edulis were bathed in 1 mL sterile phosphate buffered saline (PBS). […] NO release was monitored with an NO-selective microprobe manufactured by World Precision Instruments (Sarasota, Fla.). The sensor was positioned approximately 100 μm above the respective tissue surface. […] The NO detection system was calibrated daily. The probe was allowed to equilibrate for 10 minutes in the incubation medium free of tissue before being transferred to vials containing the ganglia for another 5 minutes. Manipulation and handling of the ganglia was only performed with glass instruments. Data was acquired using the Apollo-4000 free radical analyzer (World Precision Instruments, Sarasota, Fla.). The experimental values were then transferred to Sigma-Plot and -Stat (Jandel, Calif.) for graphic representation and evaluation.
# An additional 100 excised pedal ganglia and the human monocytes were separately washed and homogenized in 50 volumes of 0.32 M sucrose, pH 7.4, at 4° C. using a Brinkmann polytron (30 seconds, setting no. 5). The crude homogenate was centrifuged at 900×g for 10 minutes at 4° C., and the supernatant was reserved on ice. The whitish crude pellet was resuspended by homogenization (15 seconds, setting no. 5) in 30 volumes of 0.32 M sucrose/Tris-HCl buffer, pH 7.4, and centrifuged at 900×g for 10 minutes. The extraction procedure was repeated one more time, and the combined supernatants were centrifuged at 900×g for 10 minutes. The resulting supernatants (S1′) were used immediately. […] The P2 pellet was then re-suspended with a Dounce hand-held homogenizer (10 strokes) in 100 volumes of buffer. […]
# Aliquots of membrane suspension (0.2 mL, 0.12 mg of membrane protein) were incubated in triplicate at 22° C. for 40 minutes with the appropriate radiolabeled ligand in the presence of dextrorphan (10 mM) or levorphanol (10 mM) in 10 mM Tris-HCl buffer, pH 7.4, containing 0.1% BSA and 150 mM KCl. […] Protein concentration was determined in membrane suspensions (prepared in the absence of BSA).
# [3] = test system: Mytilus edulis pedal ganglia; assay: Ganglionic morphine levels after injection into the foot of intact animals; details: one hour after injection into the foot
# Method: For in vivo precursor injection experiments, the animal's foot was injected with either reticuline or L-DOPA (0.1 and 1 μg/injection, respectively). Chemicals were injected by BD 1 cc syringes with 26 G needles. Each needle was inserted into that base of the foot just above the pedal ganglia.
# For in vivo treatments, the animal's foot (20 animals per treatment) was injected with tyrosine (10^−5 M), tyramine (10^−5 M), or saline. Other animals were exposed to the enzyme inhibitors AMPT or quinidine alone or immediately following the respective foot injection. […] All chemicals were purchased from Sigma (St. Louis, Mo.).
# NCI-H295R cells = assay: Morphine production by NCI-H295R cells (RIA); type: cell-based, human; details: one half million cells, 100 ng of reticuline, 24 hours; control about 9.6±3.5
# Excerpt: Human cells (NCI-H295R) were adapted from the NCI-H295 pluripotent adrenocortical carcinoma cell line (ATCC CRL-10296), which is from a carcinoma of the adrenal cortex. The original cells were adapted to a culture medium that decreased the population doubling time from 5 days to 2 days. While the original cells grew in suspension, the adapted cells were selected to grow in a monolayer. These cells retained the ability to produce adrenal androgens and were responsive to angiotensin II and potassium ions. To propagate these cells, the culture medium was a 1:1 mixture of Dulbecco's modified Eagle's medium and Ham's F12 medium containing 15 mM HEPES, 0.00625 mg/mL insulin, 0.00625 mg/mL transferrin, 6.25 ng/mL selenium, 1.25 mg/mL bovine serum albumin, and 0.00535 mg/mL linoleic acid, 97.5%; Nu-Serum I, 2.5%. See, e.g., Rainey et al., Mol. Cell. Endocrinol., 100:45-50 (1994); Gazdar et al., Cancer Res., 50:5488-5496 (1990); and Bird et al., Endocrinology, 133:1555-1561 (1993)).
# The cells were subcultured in 6 well cell culture cluster (Corning Inc.) 24 hours before the experiment. The amount of cells was determined by Microscope (Nickon inc). Various amounts of reticuline were added to the cells, and the cells were cultured with an NAPCO incubator. The incubation was terminated after 24 hours by adding 10 NHCl.
# mu3 opiate receptor [4] = target: mu3 opiate receptor (Mytilus edulis, UniProt A0A8S3SM58); assay: Displacement of 3H-dihydromorphine, pedal ganglia membrane suspension; type: binding
# Chain of mu3 opiate receptor (Mytilus edulis, UniProt A0A8S3SM58) (A0A8S3SM58 1-388): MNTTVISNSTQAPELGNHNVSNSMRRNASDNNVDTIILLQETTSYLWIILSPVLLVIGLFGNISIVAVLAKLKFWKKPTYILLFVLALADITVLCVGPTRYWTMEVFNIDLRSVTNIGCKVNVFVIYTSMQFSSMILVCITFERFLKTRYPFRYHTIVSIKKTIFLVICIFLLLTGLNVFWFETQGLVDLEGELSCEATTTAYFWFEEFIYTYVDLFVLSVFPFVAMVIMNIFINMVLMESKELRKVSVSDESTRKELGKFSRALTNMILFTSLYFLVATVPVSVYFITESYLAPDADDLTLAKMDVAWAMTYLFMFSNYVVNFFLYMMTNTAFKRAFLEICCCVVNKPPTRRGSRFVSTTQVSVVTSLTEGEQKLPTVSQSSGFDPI
# Method: An additional 100 excised pedal ganglia and the human monocytes were separately washed and homogenized in 50 volumes of 0.32 M sucrose, pH 7.4, at 4° C. using a Brinkmann polytron (30 seconds, setting no. 5). The crude homogenate was centrifuged at 900×g for 10 minutes at 4° C., and the supernatant was reserved on ice. The whitish crude pellet was resuspended by homogenization (15 seconds, setting no. 5) in 30 volumes of 0.32 M sucrose/Tris-HCl buffer, pH 7.4, and centrifuged at 900×g for 10 minutes. The extraction procedure was repeated one more time, and the combined supernatants were centrifuged at 900×g for 10 minutes. The resulting supernatants (S1′) were used immediately. […] The P2 pellet was then re-suspended with a Dounce hand-held homogenizer (10 strokes) in 100 volumes of buffer. Binding analysis was then performed on the cell membrane suspensions.
# Aliquots of membrane suspension (0.2 mL, 0.12 mg of membrane protein) were incubated in triplicate at 22° C. for 40 minutes with the appropriate radiolabeled ligand in the presence of dextrorphan (10 mM) or levorphanol (10 mM) in 10 mM Tris-HCl buffer, pH 7.4, containing 0.1% BSA and 150 mM KCl. […] The filters were rapidly washed with 2.5 mL aliquots of the incubation buffer (4° C.), containing 2% polyethylene glycol 6000 (Baker). […] Protein concentration was determined in membrane suspensions (prepared in the absence of BSA).
# [5] = test system: human white blood cells / PMNs; assay: Morphine production by human WBC and PMNs (HPLC, RIA); type: cell-based
# NMDA NR1 Subunit = assay: NMDA NR1 subunit mRNA expression (RT-PCR); type: cell-based, human
# Method: (§1) Isolation of total RNA was performed via RNA MiniPrep Kit (QIAGEN). Concentration of RNA was determined via GeneQuant II Spectrophotometer (Pharmacia Biotech) by multiplying A260 value with dilution factor and nucleic acid constant (0.04). Agarose gel electrophoresis (1%) was used to check for RNA quality.
# (§2) RT and PCR reactions were performed in GeneAmp PCR System 9700 (Applied Biosystems) using reverse transcriptase and Taq DNA Polymerase. Forward and reverse gene specific-primers for various subunits of the 20S proteasome and immunoproteasome were either obtained from the literature or designed through Primer Express Software 2.0 (Applied Biosystems) (Table 4). NMDA receptor subunit primers were also designed (Table 4). NMDA receptor expression was used as a marker of neurodegenerative disease.
# (§3) All primers were optimized for annealing temperatures and cycles (Table 5). Gel electrophoresis (2% agarose, 0.01% ethidium bromide) was performed and analyzed using a UV transilluminator (UVP) and GelPro Analyzer Software (Applied Biosystems). Relative band intensity was normalized with β-Actin reference gene.
# 26S proteasome = assay: Chymotrypsin activity of the 26S proteasome (fluorometric); type: cell-based, human; details: rotenone 30 nM; morphine 5 μM; control 236±4.8
# Method: (§4) Proteasome function assays were performed in an effort to examine the modulation in levels of protein degradation. Fluorometric assays were performed for both the chymotrypsin activity of the 26S proteasome as well as activity of the whole 20S proteasome using procedures adapted from Kotamraju et al. (Proc. Natl. Acad. Sci. USA, 100:10653-8 (2003)). Excitation at 365 nm and emission at 460 nM of the fluorogenic compound, […] (AMC), were measured using a Spectrofluoroscence Detector (McPherson).
# NMDA NR2B Subunit = assay: NMDA NR2B subunit mRNA expression (RT-PCR); type: cell-based, human
# Method: as §1, §2, §3
# [6] = test system: 20S Proteasome X (β5) Subunit; assay: 20S proteasome X subunit protein (Western blot); type: cell-based, human; details: rotenone
# Method: (§5) To determine protein concentrations, protein was harvested using the following buffer: 20 mM Hepes (Sigma), 100 mM NaCl (Fisher), 10 mM NaF (Sigma), 1% Triton X-100 (Sigma), 1 mM sodium orthovanadate (Sigma), 10 mM EDTA (Sigma), pH 7.4, 0.1% protease inhibitor cocktail (Sigma), and ddH2O. Homogenized samples were spun in an ultracentrifuge at 10,000G for 20 minutes at 4° C. Concentration was determined via the Bradford assay (Bio-Rad) using bovine serum albumin (BSA, Sigma) for standard curve. To eliminate any potential pipetting error, samples and standards were read in triplicate.
# (§6) Western blotting was performed as follows. SDS-polyacrylamide gels (12% for separation and 5% for stacking) were made using the Mini Trans-Blot Cell (Bio-Rad). Based on the concentrations from the protein concentration determination assay, the proteins were mixed with 2× Protein Loading Buffer (0.2M DTT) for a final volume of 24 μL. Tris-Glycine Electrophoresis Buffer (1×) was used in SDS-PAGE, and proteins were separated at constant amperage (35 mA).
# (§7) Subsequent protein transfer to a nitrocellulose membrane involved use of the Mini Trans-Blot Cell apparatus run at constant voltage (100V) for 40 minutes. […]
# (§8) Substrate (Pierce) was administered as a means of stimulating chemiluminescence. Blots were developed and subsequently analyzed for relative band intensity using Gel-Pro software (Applied Biosystems).
# [7] = test system: SK-N-SH neuroblastoma cell line; type: cell-based, human
# Method: Cell viability was determined via Trypan blue exclusion. An inverted light microscope (Nikon) with a phase-contrast filter was used to observe the cells. Pictures of the cells were taken via a digital camera (Optronix) attached to the microscope ocular. Images were uploaded onto ImagePro Plus Software (Applied Biosystems), where cell viability was calculated based on both the number of cells covering the field and the cells that present as dead from the stain. In addition, ImagePro Plus was used for determining cellular morphology. The area and perimeter were found and used in the formula (4π*Area)/(Perimeter)^2, resulting in a value between 0 (a straight line) and 1 (a perfect circle).
# 20S proteasome = assay: Activity of the whole 20S proteasome (fluorometric); type: cell-based, human; details: rotenone 30 nM; morphine 5 μM
# Method: as §4
# SH-SY5Y cells = assay: M6G-induced NO release from SH-SY5Y cells; type: cell-based, human; details: 1 hour pre-treatment, 1 μM M6G
# Method: The production of NO in SH-SY5Y cells was detected using the Apollo 4000 Free Radical Analyzer (World Precision Instruments). SH-SY5Y cells were trypsinized and cultured in a 6-well plate for 48 hours. An L-shaped amperometric NO-specific probe was connected to the Apollo Analyzer and calibrated using a SNAP+CuCl2 solution, which releases calculable amounts of NO. […] At the end of the treatment time-point, the media was removed and replaced with PBS warmed in a 37° C. bath, which is non-reactive with the probe. The probe was inserted about 1.5 mm above the cells and allowed to equilibrate for 5 minutes. […] The probe was monitored in real-time for the production of NO “spikes.” NO data was recorded using Free Radical Analyzer (World Precision Instruments). Cells were then discarded.
# mu3 opiate receptor [8] = details: 10^−6 M CTOP 10 minutes prior
# Method: In addition, the cells were either incubated with or without 10^−6 M CTOP 10 minutes prior to adding M6G.
# human saphenous veins = assay: NO release from human saphenous veins; details: 10^−6 M CTOP 10 minutes before morphine
# [9] = test system: SK-N-SH neuroblastoma cell line; assay: Cellular morphology (Form Factor) of neuroblastoma cells; type: cell-based, human; details: IFNγ treatment; control 0.54±0.02
# [10] = test system: Immunoproteasome LMP7 (β5i) Subunit; assay: LMP7 polypeptide expression (Western blot); type: cell-based, human; details: IFNγ
# Method: as §5, §6, §7, §8
# [11] = test system: 20S Proteasome LMP7 Subunit (β5i); assay: LMP7 immunoproteasome subunit mRNA expression (RT-PCR); type: cell-based, human; details: IFNγ 20 ng/mL, 24 hours; control 0.29±0.01
# Method: as §1, §2, §3
molecule,measurement,setting,value
"COc1ccc(C[C@H]2c3cc(O)c(OC)cc3CCN2C)cc1O [Reticuline, reticuline]",endogenous morphine level in ganglia (HPLC),"[1]; 50 ng of reticuline, 1 hour, control 1.43±0.41",6.7±0.7 ng/mg tissue wet weight
same,morphine production in mantle tissues,"[1]; 50 ng of reticuline, mantle tissues",did not produce detectable morphine
same,morphine per mg ganglion,[1]; 100 ng of reticuline,about 5.0±0.47 ng morphine per mg ganglion
same,ganglionic morphine level (RIA),"[1]; 100 ng of reticuline, one hour, control 1.33±0.61",about 14.53±4.6 ng/mg
same,"ganglionic morphine level (HPLC, FIG. 1 legend)","[1]; 0.5 μg of reticuline, 1 hour",5 ng/mg morphine tissue wet weight
same,ganglionic morphine levels after exposure,[1]; 10^−6 M (FIG. 20),significantly enhanced morphine levels
same,ganglionic morphine levels versus control,"[1]; 50 and 100 ng, 60 minutes, in vitro",significantly higher
same,NO Peak Level,pedal ganglia; ligand 10^−7 M,17.6 ± 3.8 nM
same,NO Peak Time,pedal ganglia; ligand 10^−7 M,9.2 ± 1.5 min
same,delay before ganglionic NO release,pedal ganglia; reticuline 10^−7 M,three-minute delay
same,duration of ganglionic NO release,"pedal ganglia; reticuline 10^−7 M, morphine 10^−6 M",17 min
same,IC50,mu3 opiate receptor [2],> 1000 nM
same,pedal ganglionic morphine levels after injection,[3],significantly increased pedal ganglionic morphine levels
same,morphine produced by cells,NCI-H295R cells,about 28±5.4 ng
same,affinity for the mu3 opiate receptor,mu3 opiate receptor [4],does not exhibit an affinity
same,IC50,"mu3 opiate receptor [4]; read-out: Pedal Ganglia IC50, displacement of 3H-dihydromorphine, mean +/− S.E.M., three experiments",> 1000 nM
same,WBC morphine concentrations versus untreated cells,[5]; P<0.001,significantly increased WBC morphine concentrations
same,Morphine levels in media after the cells were removed,"[5]; PMNs 3×10^6 cells, THP 100 μg, reticuline 50 μg, L-DOPA 100 μg, L-tyrosine 100 μg",2.112 ± 0.33
same,morphine concentrations in WBC,"[5]; one-hour treatment, control 12.33±5.64",136.04±8.71 pg/million cells
C=C(C)[C@H]1Cc2c(ccc3c2O[C@@H]2COc4cc(OC)c(OC)cc4[C@@H]2C3=O)O1 [Rotenone],NR1 expression,"NMDA NR1 Subunit; rotenone 30 nM (LD50), control 1.57±0.072",1.22±0.010 AU
same,NR1 expression,NMDA NR1 Subunit; rotenone 40 nM,1.21±0.028 AU
same,activity of the chymotrypsin functional 26S active site,26S proteasome,221 ± 4.8 pM
same,NR2B expression,"NMDA NR2B Subunit; rotenone 30 nM (LD50), control 0.98±0.02",1.22±0.08 AU
same,NR2B expression,NMDA NR2B Subunit; rotenone 40 nM,1.49±0.02 AU
same,X subunit protein band intensity,[6],182 AU
same,"LD50, cellular death of neuroblastoma cells",[7]; human,30 nM
same,confluency,"[7]; rotenone 30 nM, 48-hour incubation",about 45%
same,20S proteasome activity,20S proteasome,Significant increase in activity of the 20S proteasome
Aβ1-42: β-amyloid peptide (Aβ) 1-42,M6G-induced NO release after Aβ1-42 pre-treatment,SH-SY5Y cells,dose-dependent decrease in NO release
CTOP,effect of CTOP on M6G-induced mu3 expression,mu3 opiate receptor [8],blocked by CTOP pre-treatment
same,morphine-induced NO release after CTOP pre-treatment,human saphenous veins,no NO release was detected
IFNγ: interferon used to simulate an immune response,Form Factor (FF),[9],0.76±0.02
same,LMP7 polypeptide expression,[10],caused an increase in LMP7 polypeptide expression
same,LMP7 mRNA expression,[11],0.93±0.06
